Measurements published in patent US7288527B2, “Inhibition of allergic contact dermatitis by N-L-alpha-aspartyl-L-phenylalanine 1-methyl ester” (priority 2004, dated 2007).
Residues, ends and D or L forms follow the SMILES beside them.

Experiments:
[1] = cited from earlier work
[2] = tested on: human skin exposed to urushiol (poison sumac, poison ivy); assay: Treatment and prevention of urushiol-induced dermatitis on human skin (Example 3, Patient 1); format: in vivo; conditions: topical lotion with 0.5 to 1 mg APM/ml, two to three times per day, also two packets Equal by mouth
Description: The goats frequently consumed and were in contact with both poison sumac and poison ivy abundant in their enclosure without experiencing symptoms.
A topical APM preparation was made by mixing 2 to 3 packets of Equal® brand sweetner (80-120 mg of APM) with approximately 170 ml (5.5 fluid ounces) of lotion containing Vaseline® Intensive Care® Water Resistant Moisturizing Lotion (Unilever United States, Inc.), resulting in a lotion with 0.5 to 1 mg APM/ml. Patient 1 had previously used the lotion base without effect. Patient 1 also took two packets of Equal® brand sweetener by mouth in response to a symptom of diarrhea, a condition known to be associated with urishiol.
A soap and water scrub of the affected area was done one hour after application of the cream, and the affected area allowed to air dry.
Additional affected areas were then discovered on Patient 1, and a lotion was prepared for Patient 1 to use on these areas as well as unaffected areas that could come in contact with poison ivy during their work. Patient 1 used additional topical APM preparation approximately two to three times per day.

[3] = tested on: capsaicin burning sensation on the tongue; assay: Treatment of capsaicin irritation of the tongue (Example 6); format: in vivo, human; conditions: dry powder, at least about 10 mg APM per 250 microliters of saliva
Description: A person eating spicy food seasoned with peppers is exposed to capsaicin, an irritant oil related to urushiol, causing an uncomfortable burning sensation on the tongue. APM or a derivative thereof is applied to the affected area as a dry powder in the amount of at least about 10 mg APM per 250 microliters of saliva, resulting in relief. Preferably, about 35 to about 80 mg of APM is applied to the area affected.

[4] = tested on: skin previously exposed to urushiol; assay: Treatment of allergic contact dermatitis with APM in a cream base (Example 1); format: in vivo; conditions: thin film of APM in a cream base; after sixty (60) minutes
Text: To an area of skin previously exposed to urushiol is applied a thin film of APM in a cream base. […] Further treatment may include washing the affected area to remove and displace urushiol dissolved in the applied lotion and followed by reapplication of APM containing cream or lotion.

[5] = tested on: capsaicin burning of the eye; assay: Alleviation of capsaicin burning of the eye (Example 7); format: in vivo, human; conditions: about 10 mg per 250 microliters in sterile saline applied to the affected eye
Description: A kitchen worker is exposed to capsaicin oil from peppers during cooking preparation, the oil is transferred to their hands and then, by their hands, to their eyes, resulting in a burning sensation and pain. […] The application may be repeated in 15 min because tearing may dilute or wash away the active ingredients.

[6] = tested on: capsaicin burning and pain of mucosa, eyes or nose; assay: APM against inadvertent mucosal contact with capsaicin cream (Example 8); format: in vivo, human; conditions: preparation comprising 38 mg of APM per 5 ml applied to the affected area
Description: A patient is treated for arthritis with a capsaicin cream applied twice daily to the affected joint. Capsaicin is absorbed by the transdermal tissue and then transported to joint area. After an appropriate interval, for instance 2-5 days, significant reduction in swelling, heat, redness, and pain is observed. However, the patient also inadvertently contacts his or her urethra, periurethra tissues, vaginal mucosa, rectal mucosa, eyes, or nose with the capsaicin cream, resulting in a sensation of burning and pain in the affected area.

[7] = tested on: skin which may be exposed to urushiol; assay: Prevention of urushiol-induced dermatitis on human skin (Example 2); format: in vivo; conditions: thin film of APM suspended in a petroleum cream base applied before exposure
Text: To an area of skin which may be exposed to urushiol is applied a thin film of APM suspended in a petroleum cream base.

[8] = tested on: capsaicin taste receptor (tongue); assay: Oral application of APM with capsaicin-containing red pepper sauce; format: in vivo
Text: The variability in observable results in preventing dermatitis or topical irritation appear related to the amount of APM that is applied, the time and order of the therapeutic application, and the presence of receptors to which either the irritant oil or APM may bind.

[9] = tested on: human rash secondary to urushiol exposure; assay: Treatment of rash caused by urushiol (Example 4); format: in vivo
Description: A human rash, with itching, in progress secondary to contact with an animal known to have had significant exposure to urushiol substances was arrested in 8 hours with 2 applications of aspartame in a Vaseline Intensive Care Lotion base (about 1.2 to 10 mg/ml). The itching ceased, and discomfort and irritation resolved within 8 hours.

## COC(=O)[C@H](Cc1ccccc1)NC(=O)[C@@H](N)CC(=O)O [APM, N-L-alpha-aspartyl-L-phenylalanine 1-methyl ester] (H-Asp-Phe-OMe)
[1]; pH 2.2
  maximum solubility in water: 20 mg/mL
[1]; pH 5.2
  minimum solubility in water: 13.5 mg/mL
[2]
  rash or reaction observed on the day after application: no rash or reaction had occurred
[3]
  burning sensation on the tongue: relief
[4]
  symptoms of allergic contact dermatitis: significantly reduced
[5]
  burning sensation of the eye: the burning sensation is alleviated
[6]
  burning and pain in the affected area: reducing or eliminating the burning and pain
[7]
  symptoms of allergic contact dermatitis (prophylactic use): either do not appear or are significantly reduced
[8]; long duration of exposure to capsaicin leading to secondary effects
  APM response after long exposure to capsaicin: not as strong nor as quick
[8]; oral application of APM before red pepper sauce
  recognition of spicyness of red pepper sauce: absence of recognition of the spicyness
[8]; red pepper sauce applied to the tongue first, APM applied after
  effect on developed sensations of heat and irritation: displacement by APM of capsaicin from the taste receptor is manifested and recognized quickly
[9]; 2 applications of aspartame in Vaseline Intensive Care Lotion base (about 1.2 to 10 mg/ml)
  time to arrest of rash with itching: 8 h
[9]; 2 applications, lotion base about 1.2 to 10 mg/ml
  time until itching ceased and discomfort and irritation resolved: ≤ 8 h
[9]; overnight after 2 applications, lotion base about 1.2 to 10 mg/ml
  state of rash overnight: the rash was gone
